Assay results taken from patent US20210188817A1, “OPHTHALMIC COMPOSITIONS AND METHODS FOR THE TREATMENT OF EYE DISORDERS AND SKIN DISEASES” (Cellix Bio Private Limited, priority 2018, published 2021).

Assays:
[1] = Description: SINGLE DOSE OCULAR PHARMACOKINETIC STUDY OF CLX-162 FORMULATION IN MALE NEW ZEALAND WHITE RABBITS: The purpose of this study was to determine the ocular pharmacokinetics of CLX-162, Brimonidine R-(+)-lipoate when administered to male New Zealand white rabbits by topical ocular route.
Aqueous humor samples were collected at pre-determined time points (0.25, 0.5, 1, 2, 4, 8 and 12 h from both eyes) and stored at −70° C. until analysis. Brimonidine was quantified in aqueous humor samples of New Zealand White rabbits, using a specific sensitive LC-MS/MS fit for purpose analytical method.
Brimonidine Pharmacokinetic parameters in aqueous humor of New Zealand white rabbits: […]

[2] = system: P. acnes, Staphylococcus aureus (S. aureus), and Staphylococcus epidermidis (S. epidermidis); settings: twofold serial dilutions 0.24 to 500 μg ml-1, 72, 24, 48 hours for P. acnes, OD600
Description: (§1) ANTI-MICROBIAL PROPERTIES OF CLX-SYN-G162B-C02 AND BRIMONIDINE MALEATE: To compare dose-response effects of CLX-SYN-G162B-C02 [brimonidine eicosapentaenoate salt], compound of present invention and brimonidine maleate [referred as brimonidine], comparative example on the growth of bacteria that are present in the skin flora, P. acnes, Staphylococcus aureus (S. aureus), and Staphylococcus epidermidis (S. epidermidis) were co-cultured with either agent at various concentrations for 72, 24, and 48 hours, respectively.
(§2) Bacterial growth was evaluated by measuring absorbance at 600 nm. The length of cultivation period was determined based on the growth speed of the bacteria. Both, CLX-SYN-G162B-C02 and brimonidine were tested at concentrations of twofold serial dilutions from 0.24 to 500 μg ml-1.

P. acnes = settings: 72 hours co-culture; compared with S. aureus and S. epidermidis
Description: as §1, §2

[3] = brimonidine in aqueous humor, 50 μL topical ocular, each eye, New Zealand white rabbits

Row | Compound | AUC profile ([1]; aqueous humor, ocular administration, comparator not stated) | AUCinf [1, 3] [ng·h/mL] | AUClast [1, 3] [ng·h/mL] | Cmax [1, 3] [ng/mL] | MRTlast [1, 3] [min] | T1/2 [1, 3] [min] | Tmax [1, 3] [min] | Time to maximal aqueous humor concentration ([1]; topical ocular) [h] | Brimonidine levels detectable in the aqueous humor, time post dose ([1]; topical ocular, sampling 0.25-12 h) | minimal inhibitory concentration (MIC) [2] | half maximal effective concentration on P. acnes growth (P. acnes)
1 | Brc1c(NC2=NCCN2)ccc2nccnc12.O=C(O)CCCC[C@@H]1CCSS1 [CLX-162, Brimonidine R-(+)-lipoate] | better AUC profile | 1953 | 1875 | 1073 | 75.6 | 49.2 | 30 | ≤ 0.5 | up to 4 h |  | 
2 | Brimonidine Eicosapentaenoate [CLX-SYN-G162B-C02] |  |  |  |  |  |  |  |  |  | had shown to prevent bacterial growth | lowest among the bacteria tested
3 | brimonidine maleate [reference compound] |  |  |  |  |  |  |  |  |  | no MIC | 
